The assay concerns the target human PSMA (Homo sapiens (Human), UniProt Q04609). The assay is described as follows: Enzymatic assay for in vitro evaluation of PSMA inhibitors (fluorescent assay of PSMA activity, NAAG substrate, OPA detection of glutamate). In kind it is biochemical. On the procedure: Enzymatic Assay for In Vitro Evaluation of PSMA Inhibitors
The inhibitory activity of all compounds was determined using a fluorescent assay of human PSMA activity. The enzyme used in the assay was purchased from R&D Systems and stored at −80° C. The PSMA activity was assayed in a two-step process. In the first step, aliquots of enzyme (0.2 μg/mL) were incubated for 1 h at 37° C. in 50 mM HEPES, 0.1 M NaCl, pH 7.5, in the presence of 20 μM NAAG and the given inhibitor, in a volume of 250 μL, to allow for the accumulation of glutamate produced in the PSMA reaction. In the second step, the amount of accumulated glutamate was measured using the OPA reaction, and the fluorescence was read with a SpectraMax fluorescent plate reader using excitation at 330 nm and emission at 450 nm. The final Ki values for each inhibitor were calculated from the respective IC50 values using the Cheng and Prusoff equation.

We go through 24 compounds from patent US10894807B2 (Siemens Medical Solutions USA, Inc., priority 2011, dated 2021).

Bounds are passed on as bounds.

Sequence of human PSMA (Q04609 whole entry): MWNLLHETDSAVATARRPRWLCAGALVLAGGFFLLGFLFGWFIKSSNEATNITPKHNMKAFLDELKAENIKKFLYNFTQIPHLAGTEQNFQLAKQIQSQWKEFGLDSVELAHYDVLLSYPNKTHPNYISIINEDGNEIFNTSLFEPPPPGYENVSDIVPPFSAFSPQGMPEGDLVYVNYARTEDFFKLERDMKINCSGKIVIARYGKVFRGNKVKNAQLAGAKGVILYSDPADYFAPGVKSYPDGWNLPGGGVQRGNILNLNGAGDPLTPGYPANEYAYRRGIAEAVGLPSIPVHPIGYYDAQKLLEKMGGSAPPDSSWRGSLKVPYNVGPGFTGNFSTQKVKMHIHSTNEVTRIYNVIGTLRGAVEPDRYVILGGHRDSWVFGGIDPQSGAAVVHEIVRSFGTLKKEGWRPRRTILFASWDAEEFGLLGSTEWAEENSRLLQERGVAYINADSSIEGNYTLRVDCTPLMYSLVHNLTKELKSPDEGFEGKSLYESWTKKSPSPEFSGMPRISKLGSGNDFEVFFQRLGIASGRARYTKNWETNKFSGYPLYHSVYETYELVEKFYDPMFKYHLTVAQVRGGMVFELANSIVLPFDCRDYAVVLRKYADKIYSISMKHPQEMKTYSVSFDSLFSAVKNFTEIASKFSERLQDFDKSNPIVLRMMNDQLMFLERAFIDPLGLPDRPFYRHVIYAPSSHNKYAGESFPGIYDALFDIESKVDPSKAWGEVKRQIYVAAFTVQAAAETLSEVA

On to `O=C(O)CC[C@H](NC(=O)N[C@@H](CCCCNc1nc(-c2cccc(NC(=O)Cn3cc(CCCF)nn3)c2)cs1)C(=O)O)C(=O)O` [P244, (S)-2-(3-((S)-1-Carboxy-5-(4-(3-(2-(4-(3-fluoropropyl)-1H-1,2,3-triazol-1-yl)acetamido)phenyl)thiazol-2-ylamino)pentyl)ureido)pentanedioic Acid], for which the affinity, expressed as Ki, was 0.38 nM and the “PSMA Blkg % (1.0 μM)” value worked out at 98%.

As for `O=C(O)CC[C@@H](C(=O)O)N1C(=O)/C(=C(\O)CCCCn2cc(CCCF)nn2)C(=O)N(Cc2ccccc2)C1=O` [P102, (S,Z)-2-(3-Benzyl-5-(5-(4-(3-fluoropropyl)-1H-1,2,3-triazol-1-yl)-1-hydroxypentylidene)-2,4,6-trioxotetrahydropyrimidin-1(2H)-yl)pentanedioic Acid], under “compound at 10 μM”, the “PSMA Blkg % (10 μM)” value is recorded as 0%.

Take `O=C(O)CC[C@H](NC(=O)NCCCCCNC(=O)c1cc(C(=O)NCCCCCNC(=O)N[C@@H](CCC(=O)O)C(=O)O)cc(-n2cc(CCCF)nn2)c1)C(=O)O` [P290, (2S,2′S)-2,2′-((((((5-(4-(3-Fluoropropyl)-1H-1,2,3-triazol-1-yl)isophthaloyl)bis(azanediyl))bis(pentane-5,1-diyl))bis(azanediyl))bis(carbonyl))-bis(azanediyl))dipentanedioic Acid]: the “PSMA Blkg % (1.0 μM)” value stood at 0%.

In the case of `O=C(O)CC[C@H](NC(=O)N[C@@H](CC1CCN(C(=O)c2cc(C(=O)N3CCC(C[C@H](NC(=O)N[C@@H](CCC(=O)O)C(=O)O)C(=O)O)CC3)cc(-n3cc(CCCF)nn3)c2)CC1)C(=O)O)C(=O)O` [P272, (S)-2-(3-((S)-1-Carboxy-2-(1-(3-(4-((S)-2-carboxy-2-(3-((S)-1,3-dicarboxypropyl)-ureido)ethyl)piperidine-1-carbonyl)-5-(4-(3-fluoropropyl)-1H-1,2,3-triazol-1-yl)benzoyl)piperidin-4-yl)ethyl)ureido)pentanedioic Acid], the affinity, expressed as Ki, was 2.5 nM and the “PSMA Blkg % (1.0 μM)” value worked out at 97%.

For `O=C(O)CCC(CP(=O)(O)O)C(=O)O` (stereo not shown) [P009], where the note is “compound at 10 μM”, the “PSMA Blkg % (10 μM)” value is 100%.

With `O=C(O)CCCC(=O)NC(CCC(=O)O)C(=O)O` (stereo not shown) [P030, S)-2-(4-Carboxybutanamido)pentanedioic Acid], the “PSMA Blkg % (10 μM)” value (compound at 10 μM) turned out to be 2%.

For the compound `NC1C(=O)N([C@@H](CCCCNC(=O)OCc2ccccc2)C(=O)O)C(=O)N([C@@H](CCC(=O)O)C(=O)O)C1=O` (stereo partly drawn) [P091, (2S)-2-(5-Amino-3-((S)-5-(benzyloxycarbonylamino)-1-carboxypentyl)-2,4,6-trioxotetrahydropyrimidin-1(2H)-yl)pentanedioic Acid], under “compound at 10 μM”, the “PSMA Blkg % (10 μM)” value amounted to 23%.

Consider `O=C(O)CC[C@H](NC(=O)C[C@@H](NC(=O)CCCc1ccc(F)cc1)C(=O)O)C(=O)O` [P211, (S)-2-((R)-3-Carboxy-3-(4-(4-fluorophenyl)butanamido)propanamido)pentanedioic Acid], for which the “PSMA Blkg % (10 μM)” value (10 μM) is 43%.

On to `CN(C(=S)N[C@@H](CCC(=O)O)C(=O)O)[C@@H](CCCCNC(=O)OCc1ccccc1)C(=O)O` [P143, (9S,13S)-10-Methyl-3-oxo-1-phenyl-1-thioxo-2-oxa-4,10,12-triazapentadecane-9,13,15-tricarboxylic Acid], for which the “PSMA Blkg % (10 μM)” value (compound at 10 μM) is 15%.

With `[N-]=[N+]=NCCCCC(=O)NS(=O)(=O)N[C@@H](CCC(=O)O)C(=O)O` [P183, (S)-2-((N-(5-Azidopentanoyl)sulfamoyl)amino)pentanedioic Acid], under “compound at 10 μM”, the “PSMA Blkg % (10 μM)” value was found to be 36%.

Consider `O=C(O)CC[C@@H](C(=O)O)N1C(=O)C([N+](=O)[O-])C(=O)N([C@@H](CCCCNC(=O)OCc2ccc([N+](=O)[O-])cc2)C(=O)O)C1=O` (stereo partly drawn) [P089, (2S)-2-(3-((S)-1-Carboxy-5-((((4-nitrobenzyl)oxy)carbonyl)amino)pentyl)-5-nitro-2,4,6-trioxotetrahydropyrimidin-1(2H)-yl)pentanedioic Acid], for which the inhibition constant Ki (usually a dissociation constant, usually derived from enzyme kinetics or from competition with a known ligand) was over 407 nM.

As to `O=C(O)/C=C/C(=O)N[C@@H](CCC(=O)O)C(=O)O` [P165], the “PSMA Blkg % (10 μM)” value (compound at 10 μM) was 11%.

For `CN(C(=O)[C@H](CC(=O)O)NC(=O)CCc1ccc(-n2cc(CCCF)nn2)cc1)[C@@H](CCC(=O)O)C(=O)O` [P170, (S)-2-((S)-3-Carboxy-2-(3-(4-(4-(3-fluoropropyl)-1H-1,2,3-triazol-1-yl)phenyl)propanamido)-N-methylpropanamido)pentanedioic Acid], the “PSMA Blkg % (10 μM)” value (compound at 10 μM) is 58%.

Compound “(S)-2-(3-((S)-1-Carboxy-5-(4-(2-fluoroethoxy)benzamido)pentyl)ureido)pentanedioic Acid [P160]” returned a Ki of 219 nM. In addition, the “PSMA Blkg % (10 μM)” value (compound at 10 μM) is 88%.

Consider `O=C(O)CC[C@H](NC(=O)CN(O)C(=O)CCCc1ccc(F)cc1)C(=O)O` [P154, (S)-2-(2-(4-(4-Fluorophenyl)-N-hydroxybutanamido)acetamido)pentanedioic Acid], for which the “PSMA Blkg % (10 μM)” value (compound at 10 μM) is listed as 50%.

Consider `O=C(O)CC[C@H](NC(=O)C[C@H](NC(=O)CCCNC(=O)OCc1ccccc1)C(=O)O)C(=O)O` [P116, (10S,14S)-3,8,12-Trioxo-1-phenyl-2-oxa-4,9,13-triazahexadecane-10,14,16-tricarboxylic Acid], for which the “PSMA Blkg % (10 μM)” value (compound at 10 μM) came to 31%.

Take `O=C(O)CC[C@@H](C(=O)O)N1C(=O)NC(=O)/C(=C(/O)CCC(NC(=O)OCC2c3ccccc3-c3ccccc32)C(=O)O)C1=O` (stereo partly shown) [P117]: the “PSMA Blkg % (10 μM)” value (compound at 10 μM) is listed as 18%.

As for `O=C(O)CCC(Nc1c(NC(CCC(=O)O)C(=O)O)c(=O)c1=O)C(=O)O` (stereo not shown) [P198, 2,2′-[(3,4-Dioxocyclobut-1-ene-1,2-diyl)bis(azanediyl)]dipentanedioic Acid], where the note is “10 μM”, the “PSMA Blkg % (10 μM)” value worked out at 14%.

As to `CN(C(=O)N[C@@H](CCC(=O)O)C(=O)O)[C@@H](Cc1ccc(NC(=O)CCCn2cc(CCCF)nn2)cc1)C(=O)O` [P191, (S)-2-(3-((S)-1-Carboxy-2-(4-(4-(4-(3-fluoropropyl)-1H-1,2,3-triazol-1-yl)-butanamido)phenyl)-ethyl)-3-methylureido)pentanedioic Acid], the “PSMA Blkg % (10 μM)” value (10 μM) is listed as 78%.

In the case of `O=C(O)C(Cn1ccnn1)CP(=O)(O)O` (stereo not shown) [P190, 2-((1H-1,2,3-Triazol-1-yl)methyl)-3-phosphonopropanoic Acid], the Ki stood at 188 nM.

In the case of `CC(C)(C)OC(=O)NCCCCN1CC(=O)N([C@@H](CCC(=O)O)C(=O)O)C(=O)C1` [P050, (S)-2-(4-(4-(tert-Butoxycarbonylamino)butyl)-2,6-dioxopiperazin-1-yl)pentanedioic Acid], the “PSMA Blkg % (10 μM)” value (compound at 10 μM) came to 0%.

For `O=C(O)CC[C@H](Nc1nc(C(=O)O)co1)C(=O)O` [P037, (S)-2-((4-Carboxyoxazol-2-yl)amino)pentanedioic Acid], the “PSMA Blkg % (10 μM)” value (compound at 10 μM) was 12%.

Take `O=C(O)CC[C@H](NC(=O)NC(CC1CCN(C(=O)CCCc2ccc(-n3cc(CCCF)nn3)cc2)CC1)C(=O)O)C(=O)O` (stereo partly drawn) [P230, (2S)-2-(3-(1-Carboxy-2-(1-(4-(4-(4-(3-fluoropropyl)-1H-1,2,3-triazol-1-yl)phenyl)butanoyl)-piperidin-4-yl)ethyl)ureido)pentanedioic Acid]: the Ki was 13 nM and the “PSMA Blkg % (1.0 μM)” value is 95%.

In the case of `O=C(O)CC[C@H](NC(=O)CN(O)C(=O)CCCCNC(=O)c1ccccc1)C(=O)O` [P131, (S)-2-(2-(5-Benzamido-N-hydroxypentanamido)acetamido)pentanedioic Acid], the “PSMA Blkg % (10 μM)” value (compound at 10 μM) is on record as 6%.
